In US5298519A, “Acylals of imidazole-5-carboxylic acid derivatives, and their use as angiotensin (II) inhibitors” (priority 1991, dated 1994):

How the values were obtained:
[1] = system: angiotensin II receptor; conditions: cited from earlier work
[2] = system: angiotensin II; test: pithed rats, inhibition of hypertensive action of angiotensin II; format: in vivo, rat
Source text: FIGS. 2a), b) and c) depict the effect of the presently claimed and known intravenously administered compounds on angiotensin II induced increases on diastolic blood pressure in pithed rats.
FIGS. 3a), b) and c) depict the effect of known and claimed intraduodenally administered compounds on angiotensin II induced increases of diastolic blood pressure in pithed rats.
FIG. 4 depicts further the effect of known and prior art intraduodenally administered compounds on angiotensin II induced increases of diastolic blood pressure in pithed rats.

[3] = biological target: angiotensin II-1 subtype receptor; test: affinity for angiotensin II-1 subtype receptor on rat adrenal cortex microsomes (3H-DuP 753); format: binding; conditions: adrenal cortex microsomes of rats
Experimental: The affinity of the substances for the angiotensin II-1 subtype receptor was determined on adrenal cortex microsomes of rats (system: ^3 H-DuP 753).

[4] = system: angiotensin II; test: anaesthetized, normotensive rats, duration of action against angiotensin II after intraduodenal administration; format: in vivo, rat; conditions: for time to maximum angiotensin antagonistic action: after intraduodenal administration, Example 1 at 3 mg/kg
Experimental: FIG. 5 depicts the effect of known and prior art intraduodenally administered compounds on angiotensin II induced increases of mean arterial blood pressure in anaesthetized, normotensive rats.
FIGS. 6a) and b) depict the effect of known and prior art intraduodenally administered compounds on antiotensin II induced increases in mean arterial blood pressure in normotensive rats.
The duration of action of the substance was determined in anaesthetized, normotensive rats. Angiotensin II (1 μg.kg) was administered intravenously before substance administration and at 15 minute intervals after intraduodenal substance administration.

[5] = system: angiotensin II receptor; test: isolated rat aorta, inhibition of maximum contraction due to angiotensin II; format: cell-based; conditions: for inhibition at 0.1 µM / inhibition at 0.01 µM / inhibition at 0.001 µM: Rattus norvegicus, angiotensin II 3 × 10^-7 mol/l; for inhibition at 0.1 µM: 10^-7 mol/l compound; for inhibition at 0.01 µM: 10^-8 mol/l compound; for inhibition at 0.001 µM: 10^-9 mol/l compound
Source text: FIGS. 1a) and b) depict the action of a compound according to the present invention and a compound of the prior art on the contractile force of an isolated rat aorta.
Isolated rat aorta: % inhibition of the maximum contraction

[6] = anaesthetized normotensive rats, intraduodenal

Row | IC50 [3] [nM] | SMILES | conversion on in vivo administration ([1]; in vivo) | type of inhibition of the hypertensive action of angiotensin II [2] | sequence of potency ([2]; intraduodenal) | time to maximum angiotensin antagonistic action [4] [min] | sequence of potency [4, 6] | inhibition at 0.1 µM [5] [%] | inhibition at 0.01 µM [5] [%] | inhibition at 0.001 µM [5] [%] | type of angiotensin II receptor antagonism ([5]; isolated rat aorta) | reduction of the maximum contraction due to angiotensin II (in words) ([5]; isolated rat aorta, 10^-9 -10^-7 mol/l) | contribution to the duration of action of DuP 753 ([1]; in vivo) | type of antagonism ([1]; metabolite of DuP 753) | potency after intraduodenal administration ([2]; intraduodenal) | potency relative to EXP 3174 ([2]; intravenous, Example 1 0.3-10 mg/kg) | potency relative to DuP 753 ([2]; intravenous, Example 1 0.3-10 mg/kg, DuP 753 1-10 mg/kg) | effectiveness relative to 10 mg/kg of DuP 753 ([4]; 3 mg/kg of Example 1, intraduodenal, anaesthetized normotensive rats) | onset of action ([4]; intraduodenal, normotensive rats)
1 | 7.24 | CCCCc1nc(Cl)c(CO)n1Cc1ccc(-c2ccccc2-c2nnn[nH]2)cc1 [DuP 753, 2-n-butyl-4-chloro-5-hydroxymethyl-1-((2'-(1H-tetrazol-5-yl)biphenyl-4-yl)methyl)imidazole] | converted on in vivo administration to a non-competitive metabolite EXP 3174 | competitive inhibition, that is to say to a parallel shift to the right of the dose-response curve of angiotensin II without a reduction in the maximum effect | Example 1>DuP 753>EXP 3174 | 30 to 60 | Example 1>DuP 753 |  |  |  |  |  |  |  |  |  |  |  | 
2 | 79.4 | CCCCc1nc(Cl)c(C(=O)OC(C)OC(=O)OCC)n1Cc1ccc(-c2ccccc2-c2nn[nH]n2)cc1 (stereo not drawn) [Example 1] |  | in a non-competitive manner | Example 1>DuP 753>EXP 3174 | 15 | Example 1>DuP 753 | 98 | 72 | 63 | selective, non-competitive angiotensin II receptor antagonists |  |  |  | by far the most potent substance | about as potent as EXP 3174 | slightly more potent than DuP 753 | about twice as effective as 10 mg/kg of DuP 753 | particularly rapid, dose-dependent onset of action

Row | SMILES | IC50 [3] [nM] | conversion on in vivo administration ([1]; in vivo) | type of inhibition of the hypertensive action of angiotensin II [2] | sequence of potency ([2]; intraduodenal) | time to maximum angiotensin antagonistic action [4] [min] | sequence of potency [4, 6] | inhibition at 0.1 µM [5] [%] | inhibition at 0.01 µM [5] [%] | inhibition at 0.001 µM [5] [%] | type of angiotensin II receptor antagonism ([5]; isolated rat aorta) | reduction of the maximum contraction due to angiotensin II (in words) ([5]; isolated rat aorta, 10^-9 -10^-7 mol/l) | contribution to the duration of action of DuP 753 ([1]; in vivo) | type of antagonism ([1]; metabolite of DuP 753) | potency after intraduodenal administration ([2]; intraduodenal) | potency relative to EXP 3174 ([2]; intravenous, Example 1 0.3-10 mg/kg) | potency relative to DuP 753 ([2]; intravenous, Example 1 0.3-10 mg/kg, DuP 753 1-10 mg/kg) | effectiveness relative to 10 mg/kg of DuP 753 ([4]; 3 mg/kg of Example 1, intraduodenal, anaesthetized normotensive rats) | onset of action ([4]; intraduodenal, normotensive rats)
3 | CCCCc1nc(Cl)c(C(=O)O)n1Cc1ccc(-c2ccccc2-c2nnn[nH]2)cc1 [EXP 3174, 2-n-butyl-4-chloro-1-((2'-(1H-tetrazol-5-yl)biphenyl-4-yl)methyl)imidazole-5-carboxylic acid] | 7.87 |  | in a non-competitive manner | Example 1>DuP 753>EXP 3174 |  |  | 100 | 95 | 76 | selective, non-competitive angiotensin II receptor antagonists | acting in a comparatively more potent manner | responsible to a large extent for the duration of action of DuP 753 | non-competitive |  |  |  |  | 
